Patent publication US20260306503A1, “(S)-2-HYDROXY-6-((4-(2-(2-HYDROXYETHYL)NICOTINOYL)MORPHOLIN-3-YL)METHOXY)BENZALDEHYD FOR USE IN THE TREATMENT OF SICKLE CELL DISEASE” (Global Blood Therapeutics, Inc., priority 2023, published 2026)

Test system: participants with SCD
Assay: Preliminary blood analysis of SCD patients given oral Compound I, 300 mg QD for 14 days then 200 mg QD through Week 12 (Part A Sub Study 2);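 on Bilirubin total: values in mg/dL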
Assay type: in vivo, human
Conditions: for Bilirubin total: Day 0 (screening) 4.84
Protocol: Part A of this study is a Phase 2 randomized, open-label, dose-finding study in approximately 60 adult participants with SCD. The primary objective of Part A of this study is to assess the effects of Compound I in adult participants with SCD as measured by change in hemoglobin.
Participants are screened for eligibility in the study from Day −28 through Day −1. Eligible participants are randomized on Day 1 based on a 1:1 (100 mg: 150 mg) allocation and will receive their initial dose (loading dose) of Compound I. After completion of Day 1 assessments and subsequent loading doses, participants will continue with administration of their maintenance dose daily through Week 12.
Some newly enrolled participants in Part A will receive a loading dose regimen of 300 mg of Compound I once daily over the first 14 days. Participants will then receive 200 mg once daily maintenance doses through Week 12.

## O=Cc1c(O)cccc1OC[C@@H]1COCCN1C(=O)c1cccnc1CCO [Compound I, (S)-2-hydroxy-6-((4-(2-(2-hydroxyethyl)nicotinoyl)morpholin-3-yl)methoxy)benzaldehyde]
Patient B, Day 43, Day 0 (screening) 23.5
  Hematocrit (HCT): 45.4%
Patient B, Day 43, Day 0 (screening) 41.1
  Aspartate Aminotransferase (AST): 27.1 IU/L
Patient B, Day 43, Day 0 (screening) 49.3
  Alkaline phosphatase: 67.6 IU/L
Patient B, Day 43, Day 0 (screening) 360
  Platelet count: 260 K/μL
Patient B, Day 43, Day 0 (screening) 371
  Lactate dehydrogenase (LDH): 151 IU/L
Patient B, Day 57, Day 0 (screening) 0.18
  Bilirubin direct: 0.18 mg/dL
Patient B, Day 57, Day 0 (screening) 4.66
  Bilirubin indirect: 0.39 mg/dL
Patient B, Day 57
  Bilirubin total: 0.57 mg/dL
Patient B, Day 57, Day 0 (screening) 6.9
  Absolute neutrophil: 5.5 K/μL
Patient B, Day 57, Day 0 (screening) 8.3
  Hemoglobin (HGB): 14.3 g/dL
Patient B, Day 57, Day 0 (screening) 11.5
  Reticulocytes: 0.9%
Patient B, Day 57, Day 0 (screening) 22.0
  Alanine Aminotransferase (ALT): 17.9 IU/L
Patient B, Day 57, Day 0 (screening) 23.5
  Hematocrit (HCT): 42.6%
Patient B, Day 57, Day 0 (screening) 41.1
  Aspartate Aminotransferase (AST): 26.2 IU/L
Patient B, Day 57, Day 0 (screening) 49.3
  Alkaline phosphatase: 69.6 IU/L
Patient B, Day 57, Day 0 (screening) 360
  Platelet count: 290 K/μL
Patient B, Day 57, Day 0 (screening) 371
  Lactate dehydrogenase (LDH): 152 IU/L
Patient B, Day 85, Day 0 (screening) 0.18
  Bilirubin direct: <0.01 mg/dL
Patient B, Day 85
  Bilirubin total: 0.94 mg/dL
Patient B, Day 85, Day 0 (screening) 6.9
  Absolute neutrophil: 5.6 K/μL
Patient B, Day 85, Day 0 (screening) 8.3
  Hemoglobin (HGB): 14.9 g/dL
Patient B, Day 85, Day 0 (screening) 11.5
  Reticulocytes: 1.1%
Patient B, Day 85, Day 0 (screening) 22.0
  Alanine Aminotransferase (ALT): 20.0 IU/L
Patient B, Day 85, Day 0 (screening) 23.5
  Hematocrit (HCT): 43.7%
Patient B, Day 85, Day 0 (screening) 41.1
  Aspartate Aminotransferase (AST): 27.1 IU/L
Patient B, Day 85, Day 0 (screening) 49.3
  Alkaline phosphatase: 72.6 IU/L
Patient B, Day 85, Day 0 (screening) 360
  Platelet count: 256 K/μL
Patient B, Day 85, Day 0 (screening) 371
  Lactate dehydrogenase (LDH): 141 IU/L
Patient C, Day 1, Day 0 (screening) 0.58
  Bilirubin direct: 0.58 mg/dL
Patient C, Day 1, Day 0 (screening) 4.26
  Bilirubin indirect: 4.87 mg/dL
Patient C, Day 1
  Bilirubin total: 5.45 mg/dL
Patient C, Day 1, Day 0 (screening) 20.0
  Alanine Aminotransferase (ALT): 24.8 IU/L
Patient C, Day 1, Day 0 (screening) 48.0
  Aspartate Aminotransferase (AST): 62.0 IU/L
Patient C, Day 1, Day 0 (screening) 52.4
  Alkaline phosphatase: 51.4 IU/L
Patient C, Day 1, Day 0 (screening) 533
  Lactate dehydrogenase (LDH): 691 IU/L
Patient C, Day 8, Day 0 (screening) 0.58
  Bilirubin direct: 0.38 mg/dL
Patient C, Day 8, Day 0 (screening) 0.8
  Absolute neutrophil: 6.7 K/μL
Patient C, Day 8, Day 0 (screening) 4.26
  Bilirubin indirect: 3.85 mg/dL
Patient C, Day 8
  Bilirubin total: 4.23 mg/dL
Patient C, Day 8, Day 0 (screening) 7.1
  Hemoglobin (HGB): 9.1 g/dL
Patient C, Day 8, Day 0 (screening) 13.7
  Reticulocytes: 9.9%
Patient C, Day 8, Day 0 (screening) 20.0
  Alanine Aminotransferase (ALT): 28.9 IU/L
Patient C, Day 8, Day 0 (screening) 21.0
  Hematocrit (HCT): 25.9%
Patient C, Day 8, Day 0 (screening) 48.0
  Aspartate Aminotransferase (AST): 57.0 IU/L
Patient C, Day 8, Day 0 (screening) 52.4
  Alkaline phosphatase: 61.5 IU/L
Patient C, Day 8, Day 0 (screening) 392
  Platelet count: 405 K/μL
Patient C, Day 8, Day 0 (screening) 533
  Lactate dehydrogenase (LDH): 545 IU/L
Patient C, Day 15, Day 0 (screening) 0.58
  Bilirubin direct: 0.38 mg/dL
Patient C, Day 15, Day 0 (screening) 0.8
  Absolute neutrophil: 3.9 K/μL
Patient C, Day 15, Day 0 (screening) 4.26
  Bilirubin indirect: 3.12 mg/dL
Patient C, Day 15
  Bilirubin total: 3.50 mg/dL
Patient C, Day 15, Day 0 (screening) 7.1
  Hemoglobin (HGB): 10.2 g/dL
Patient C, Day 15, Day 0 (screening) 13.7
  Reticulocytes: 5.0%
Patient C, Day 15, Day 0 (screening) 20.0
  Alanine Aminotransferase (ALT): 18.6 IU/L
Patient C, Day 15, Day 0 (screening) 21.0
  Hematocrit (HCT): 29.8%
Patient C, Day 15, Day 0 (screening) 48.0
  Aspartate Aminotransferase (AST): 34.1 IU/L
Patient C, Day 15, Day 0 (screening) 52.4
  Alkaline phosphatase: 54.4 IU/L
Patient C, Day 15, Day 0 (screening) 392
  Platelet count: 482 K/μL
Patient C, Day 15, Day 0 (screening) 533
  Lactate dehydrogenase (LDH): 327 IU/L
Patient C, Day 29, Day 0 (screening) 0.58
  Bilirubin direct: 0.38 mg/dL
Patient C, Day 29, Day 0 (screening) 0.8
  Absolute neutrophil: 2.6 K/μL
Patient C, Day 29, Day 0 (screening) 4.26
  Bilirubin indirect: 2.51 mg/dL
Patient C, Day 29
  Bilirubin total: 2.89 mg/dL
Patient C, Day 29, Day 0 (screening) 7.1
  Hemoglobin (HGB): 11.6 g/dL
Patient C, Day 29, Day 0 (screening) 13.7
  Reticulocytes: 1.8%
Patient C, Day 29, Day 0 (screening) 20.0
  Alanine Aminotransferase (ALT): 17.2 IU/L
Patient C, Day 29, Day 0 (screening) 21.0
  Hematocrit (HCT): 33.9%
Patient C, Day 29, Day 0 (screening) 48.0
  Aspartate Aminotransferase (AST): 39.1 IU/L
Patient C, Day 29, Day 0 (screening) 52.4
  Alkaline phosphatase: 51.4 IU/L
Patient C, Day 29, Day 0 (screening) 392
  Platelet count: 357 K/μL
Patient C, Day 29, Day 0 (screening) 533
  Lactate dehydrogenase (LDH): 256 IU/L
Patient C, Day 43, Day 0 (screening) 0.58
  Bilirubin direct: 0.28 mg/dL
Patient C, Day 43, Day 0 (screening) 0.8
  Absolute neutrophil: 1.0 K/μL
Patient C, Day 43, Day 0 (screening) 4.26
  Bilirubin indirect: 4.44 mg/dL
Patient C, Day 43
  Bilirubin total: 4.72 mg/dL
Patient C, Day 43, Day 0 (screening) 7.1
  Hemoglobin (HGB): 10.5 g/dL
Patient C, Day 43, Day 0 (screening) 13.7
  Reticulocytes: 2.8%
Patient C, Day 43, Day 0 (screening) 20.0
  Alanine Aminotransferase (ALT): 26.8 IU/L
Patient C, Day 43, Day 0 (screening) 21.0
  Hematocrit (HCT): 30.1%
Patient C, Day 43, Day 0 (screening) 48.0
  Aspartate Aminotransferase (AST): 46.1 IU/L
Patient C, Day 43, Day 0 (screening) 52.4
  Alkaline phosphatase: 58.5 IU/L
Patient C, Day 43, Day 0 (screening) 392
  Platelet count: 416 K/μL
Patient C, Day 43, Day 0 (screening) 533
  Lactate dehydrogenase (LDH): 291 IU/L
Patient C, Day 57, Day 0 (screening) 0.58
  Bilirubin direct: 0.18 mg/dL
Patient C, Day 57, Day 0 (screening) 0.8
  Absolute neutrophil: 4.3 K/μL
Patient C, Day 57, Day 0 (screening) 4.26
  Bilirubin indirect: 3.44 mg/dL
Patient C, Day 57
  Bilirubin total: 3.62 mg/dL
Patient C, Day 57, Day 0 (screening) 7.1
  Hemoglobin (HGB): 10.4 g/dL
Patient C, Day 57, Day 0 (screening) 13.7
  Reticulocytes: 4.2%
Patient C, Day 57, Day 0 (screening) 20.0
  Alanine Aminotransferase (ALT): 21.3 IU/L
Patient C, Day 57, Day 0 (screening) 21.0
  Hematocrit (HCT): 28.9%
Patient C, Day 57, Day 0 (screening) 48.0
  Aspartate Aminotransferase (AST): 46.1 IU/L
Patient C, Day 57, Day 0 (screening) 52.4
  Alkaline phosphatase: 56.4 IU/L
Patient C, Day 57, Day 0 (screening) 392
  Platelet count: 413 K/μL
Patient C, Day 57, Day 0 (screening) 533
  Lactate dehydrogenase (LDH): 296 IU/L
Patient C, Day 85, Day 0 (screening) 0.58
  Bilirubin direct: <0.01 mg/dL
Patient C, Day 85, Day 0 (screening) 0.8
  Absolute neutrophil: 4.9 K/μL
Patient C, Day 85
  Bilirubin total: 3.62 mg/dL
Patient C, Day 85, Day 0 (screening) 7.1
  Hemoglobin (HGB): 10.0 g/dL
Patient C, Day 85, Day 0 (screening) 13.7
  Reticulocytes: 5.9%
Patient C, Day 85, Day 0 (screening) 20.0
  Alanine Aminotransferase (ALT): 20.6 IU/L
Patient C, Day 85, Day 0 (screening) 21.0
  Hematocrit (HCT): 28.2%
Patient C, Day 85, Day 0 (screening) 48.0
  Aspartate Aminotransferase (AST): 39.1 IU/L
Patient C, Day 85, Day 0 (screening) 52.4
  Alkaline phosphatase: 55.4 IU/L
Patient C, Day 85, Day 0 (screening) 392
  Platelet count: 457 K/μL
Patient C, Day 85, Day 0 (screening) 533
  Lactate dehydrogenase (LDH): 276 IU/L
